Measured values published in ChEMBL document CHEMBL1201862, “PubChem BioAssay data set” (2004).
Calls of active or inactive are those of the source.

Experiments:
[1] = molecular target: T1, Mannose-6-phosphate isomerase (Homo sapiens, UniProt P34949); assay: human PMI inhibitors, high substrate, primary screen, biochemical, fluorescence intensity, high mannose 6-phosphate (AID 1220)
T1 sequence (P34949 whole entry): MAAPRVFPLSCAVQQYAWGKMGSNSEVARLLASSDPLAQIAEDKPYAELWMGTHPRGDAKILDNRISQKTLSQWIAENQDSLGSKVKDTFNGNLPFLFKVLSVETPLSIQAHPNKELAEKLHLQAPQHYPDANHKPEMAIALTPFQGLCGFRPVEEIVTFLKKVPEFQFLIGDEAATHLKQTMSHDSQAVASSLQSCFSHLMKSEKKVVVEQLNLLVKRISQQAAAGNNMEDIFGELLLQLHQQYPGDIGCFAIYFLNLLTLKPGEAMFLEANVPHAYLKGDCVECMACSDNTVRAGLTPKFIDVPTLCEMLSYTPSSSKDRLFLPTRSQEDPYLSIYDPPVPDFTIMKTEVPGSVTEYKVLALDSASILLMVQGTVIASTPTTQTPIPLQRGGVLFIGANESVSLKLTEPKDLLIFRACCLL

Caspase-3 = molecular target: T2, Caspase-3 (Homo sapiens, UniProt P42574); type: functional;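 further: Dose-response selectivity test against caspase-3 for candidate inhibitors of sentrin-specific proteases (SENPs)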
T2 sequence (P42574 whole entry): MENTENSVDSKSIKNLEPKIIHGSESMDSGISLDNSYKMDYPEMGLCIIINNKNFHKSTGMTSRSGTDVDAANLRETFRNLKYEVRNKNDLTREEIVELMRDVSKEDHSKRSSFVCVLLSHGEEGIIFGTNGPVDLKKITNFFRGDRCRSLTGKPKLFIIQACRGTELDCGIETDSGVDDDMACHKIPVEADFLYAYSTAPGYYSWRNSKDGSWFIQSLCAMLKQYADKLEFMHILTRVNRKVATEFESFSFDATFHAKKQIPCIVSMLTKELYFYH

[2] = molecular target: T3, Sentrin-specific protease 7 (Homo sapiens, UniProt Q9BQF6); type: functional;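 further: Luminescence-based dose-response confirmation of ultra-high-throughput screening hits, measuring inhibition of SENP7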
T3 sequence (Q9BQF6 whole entry): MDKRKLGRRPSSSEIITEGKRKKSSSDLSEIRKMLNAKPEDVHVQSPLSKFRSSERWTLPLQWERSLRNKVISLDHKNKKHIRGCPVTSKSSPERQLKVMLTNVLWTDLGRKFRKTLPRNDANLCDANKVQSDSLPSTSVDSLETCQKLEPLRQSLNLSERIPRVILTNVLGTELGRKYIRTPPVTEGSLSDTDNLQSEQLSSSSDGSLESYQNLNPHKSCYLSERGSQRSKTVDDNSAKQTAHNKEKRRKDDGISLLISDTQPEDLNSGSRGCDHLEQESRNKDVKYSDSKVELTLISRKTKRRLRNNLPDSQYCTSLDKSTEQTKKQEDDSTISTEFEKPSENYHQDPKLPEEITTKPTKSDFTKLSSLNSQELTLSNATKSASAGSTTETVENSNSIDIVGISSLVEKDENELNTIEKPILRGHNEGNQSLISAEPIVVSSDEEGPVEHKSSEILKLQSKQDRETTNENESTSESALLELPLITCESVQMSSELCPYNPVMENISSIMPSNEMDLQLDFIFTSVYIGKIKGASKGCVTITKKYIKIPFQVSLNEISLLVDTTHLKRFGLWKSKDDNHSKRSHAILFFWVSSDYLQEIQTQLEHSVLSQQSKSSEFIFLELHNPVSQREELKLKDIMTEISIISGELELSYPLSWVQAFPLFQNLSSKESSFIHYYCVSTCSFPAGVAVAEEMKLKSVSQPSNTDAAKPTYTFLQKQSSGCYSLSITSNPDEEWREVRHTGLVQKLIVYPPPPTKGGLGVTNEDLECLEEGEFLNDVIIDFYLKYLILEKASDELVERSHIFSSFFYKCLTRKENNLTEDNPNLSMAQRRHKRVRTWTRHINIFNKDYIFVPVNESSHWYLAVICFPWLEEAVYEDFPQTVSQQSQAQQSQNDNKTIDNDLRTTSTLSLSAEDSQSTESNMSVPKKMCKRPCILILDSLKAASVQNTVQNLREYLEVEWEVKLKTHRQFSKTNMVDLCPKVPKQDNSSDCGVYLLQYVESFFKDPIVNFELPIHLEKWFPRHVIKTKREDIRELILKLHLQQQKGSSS

[3] = molecular target: T4, Sentrin-specific protease 6 (Homo sapiens, UniProt Q9GZR1); type: functional;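 further: Luminescence-based dose-response confirmatory assay of SENP6 inhibition, following up an ultra-high-throughput screen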
T4 sequence (Q9GZR1 whole entry): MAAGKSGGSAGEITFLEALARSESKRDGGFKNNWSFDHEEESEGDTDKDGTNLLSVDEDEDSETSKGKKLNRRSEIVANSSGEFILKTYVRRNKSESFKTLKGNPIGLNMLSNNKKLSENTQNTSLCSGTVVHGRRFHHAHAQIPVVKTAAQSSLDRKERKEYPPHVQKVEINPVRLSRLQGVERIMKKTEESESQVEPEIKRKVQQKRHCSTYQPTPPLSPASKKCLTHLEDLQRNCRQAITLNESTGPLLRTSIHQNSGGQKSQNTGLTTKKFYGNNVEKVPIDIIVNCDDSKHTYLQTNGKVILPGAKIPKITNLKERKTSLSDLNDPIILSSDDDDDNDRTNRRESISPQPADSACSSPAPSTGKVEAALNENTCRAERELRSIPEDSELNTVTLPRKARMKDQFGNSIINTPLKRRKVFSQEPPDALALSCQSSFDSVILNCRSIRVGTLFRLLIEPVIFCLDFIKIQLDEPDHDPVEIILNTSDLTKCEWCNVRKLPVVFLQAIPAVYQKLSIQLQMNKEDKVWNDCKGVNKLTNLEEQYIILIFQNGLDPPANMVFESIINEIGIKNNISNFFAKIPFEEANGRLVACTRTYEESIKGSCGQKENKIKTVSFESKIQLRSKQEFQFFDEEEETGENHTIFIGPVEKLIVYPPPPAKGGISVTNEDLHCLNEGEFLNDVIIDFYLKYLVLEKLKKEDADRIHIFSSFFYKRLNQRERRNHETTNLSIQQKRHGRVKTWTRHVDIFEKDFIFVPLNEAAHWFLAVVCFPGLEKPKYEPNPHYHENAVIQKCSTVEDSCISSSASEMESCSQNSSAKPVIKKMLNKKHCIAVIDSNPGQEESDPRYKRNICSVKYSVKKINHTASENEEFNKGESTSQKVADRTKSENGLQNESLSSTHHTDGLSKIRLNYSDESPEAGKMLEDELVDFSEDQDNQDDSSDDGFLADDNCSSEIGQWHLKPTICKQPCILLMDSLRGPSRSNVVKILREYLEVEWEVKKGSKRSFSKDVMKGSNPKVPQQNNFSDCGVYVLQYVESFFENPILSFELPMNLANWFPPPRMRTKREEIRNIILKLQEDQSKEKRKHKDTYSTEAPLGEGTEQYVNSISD

[4] = molecular target: T5, Sentrin-specific protease 8 (Homo sapiens, UniProt Q96LD8); type: functional;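 further: luminescence read-out of SENP8 inhibition, dose-response confirmation following an ultra-high-throughput screen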
T5 sequence (Q96LD8 whole entry): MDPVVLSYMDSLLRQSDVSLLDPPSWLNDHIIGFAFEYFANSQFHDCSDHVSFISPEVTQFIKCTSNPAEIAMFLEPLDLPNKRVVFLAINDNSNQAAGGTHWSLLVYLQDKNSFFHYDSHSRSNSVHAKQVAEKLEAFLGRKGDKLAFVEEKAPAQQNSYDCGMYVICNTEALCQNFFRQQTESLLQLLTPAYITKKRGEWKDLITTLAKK

[5] = molecular target: T6, Heat shock factor protein 1 (Mus musculus, UniProt P38532); assay: HSF1 potentiators in luciferase reporter cells, confirmation, cell-based, NIH3T3, luminescence, dose retest (AID 435004); type: functional;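 further: stress induced by proteasome inhibitor MG132 added 30 min after compound; luciferase reporter driven by HSF1 response element in NIH3T3 cells; actives raise luminescence as potentiators of the MG132 stress response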
T6 sequence (P38532 whole entry): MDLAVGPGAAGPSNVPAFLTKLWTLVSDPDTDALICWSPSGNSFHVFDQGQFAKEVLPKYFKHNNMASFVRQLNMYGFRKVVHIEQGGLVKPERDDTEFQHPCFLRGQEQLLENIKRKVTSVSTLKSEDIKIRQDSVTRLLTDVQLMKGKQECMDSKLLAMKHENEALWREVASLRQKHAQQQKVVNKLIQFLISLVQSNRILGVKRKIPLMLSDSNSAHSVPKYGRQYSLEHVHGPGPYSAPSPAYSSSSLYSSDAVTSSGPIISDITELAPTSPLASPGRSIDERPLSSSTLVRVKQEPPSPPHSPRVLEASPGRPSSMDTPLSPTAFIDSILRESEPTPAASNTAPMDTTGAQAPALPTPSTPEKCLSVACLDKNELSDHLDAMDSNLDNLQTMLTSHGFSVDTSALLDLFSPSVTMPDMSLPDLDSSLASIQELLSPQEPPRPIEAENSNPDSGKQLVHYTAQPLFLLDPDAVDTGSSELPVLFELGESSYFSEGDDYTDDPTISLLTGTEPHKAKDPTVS

H9c2 = assay: cells; type: functional, cell-based; conditions: Rattus norvegicus, H9c2, Myocardium;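 further: confirmatory concentration-response retest of ultra-high-throughput screening hits for modulation of myocardial damage; cell death induced by hydrogen peroxide oxidative stress; compound pretreatment for 60 min then peroxide exposure for 2 h; potency is for protecting the cells against peroxide damage rather than for killing them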
[6] = LGR2 antagonists, dose response, cell-based, HEK293, CRE-luciferase reporter, cherry pick, set 2 (AID 743343); type: functional;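 further: transfected cells were stimulated with diluted bursicon conditioned medium after compound addition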
[7] = MC4R antagonists, dose response, counter-screen for LGR2 antagonist project, cell-based, plate reader, cherry pick (AID 743444); type: functional;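 further: transfected HEK 293 cells stimulated with alpha-MSH peptide; potency of inhibitors of the alpha-MSH evoked signal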
[8] = molecular target: T7, Replicative DNA helicase DnaB (Mycobacterium tuberculosis, UniProt P9WMR3); assay: DnaB intein splicing inhibitors, dose response, biochemical, cell-free fluorescence (AID 449749); type: functional
T7 sequence (P9WMR3 whole entry): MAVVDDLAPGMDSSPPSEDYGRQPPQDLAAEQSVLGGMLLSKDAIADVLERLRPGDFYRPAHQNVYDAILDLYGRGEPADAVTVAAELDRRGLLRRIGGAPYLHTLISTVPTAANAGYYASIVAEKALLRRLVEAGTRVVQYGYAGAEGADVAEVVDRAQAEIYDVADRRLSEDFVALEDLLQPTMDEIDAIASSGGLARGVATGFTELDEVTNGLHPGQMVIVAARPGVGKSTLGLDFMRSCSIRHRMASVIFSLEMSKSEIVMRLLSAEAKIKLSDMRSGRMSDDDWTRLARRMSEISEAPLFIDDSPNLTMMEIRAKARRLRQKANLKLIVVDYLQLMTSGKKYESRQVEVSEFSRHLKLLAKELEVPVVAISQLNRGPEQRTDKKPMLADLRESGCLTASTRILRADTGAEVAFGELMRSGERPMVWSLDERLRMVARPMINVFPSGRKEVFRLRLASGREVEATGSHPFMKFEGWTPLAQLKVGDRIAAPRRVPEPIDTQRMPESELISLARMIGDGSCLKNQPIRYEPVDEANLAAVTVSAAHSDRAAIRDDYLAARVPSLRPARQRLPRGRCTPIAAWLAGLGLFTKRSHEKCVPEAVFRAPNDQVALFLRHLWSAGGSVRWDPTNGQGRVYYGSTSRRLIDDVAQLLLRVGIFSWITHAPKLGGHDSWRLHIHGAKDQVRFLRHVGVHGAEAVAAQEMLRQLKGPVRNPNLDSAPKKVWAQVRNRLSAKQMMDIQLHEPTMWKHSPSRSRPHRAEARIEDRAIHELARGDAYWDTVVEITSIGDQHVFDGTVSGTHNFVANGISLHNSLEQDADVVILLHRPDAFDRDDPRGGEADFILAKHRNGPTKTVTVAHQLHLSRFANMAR

Protein RecA = molecular target: T8, Protein RecA (Mycobacterium tuberculosis, UniProt P9WHJ3); assay: Fluorescence Cell-Free Homogeneous Dose Retest to Identify Inhibitors of RecA-Intein Splicing Activity. [Related pubchem assays (depositor defined):AID2097, AID2223, AID489010, AID492950]; type: functional
T8 sequence (P9WHJ3 whole entry): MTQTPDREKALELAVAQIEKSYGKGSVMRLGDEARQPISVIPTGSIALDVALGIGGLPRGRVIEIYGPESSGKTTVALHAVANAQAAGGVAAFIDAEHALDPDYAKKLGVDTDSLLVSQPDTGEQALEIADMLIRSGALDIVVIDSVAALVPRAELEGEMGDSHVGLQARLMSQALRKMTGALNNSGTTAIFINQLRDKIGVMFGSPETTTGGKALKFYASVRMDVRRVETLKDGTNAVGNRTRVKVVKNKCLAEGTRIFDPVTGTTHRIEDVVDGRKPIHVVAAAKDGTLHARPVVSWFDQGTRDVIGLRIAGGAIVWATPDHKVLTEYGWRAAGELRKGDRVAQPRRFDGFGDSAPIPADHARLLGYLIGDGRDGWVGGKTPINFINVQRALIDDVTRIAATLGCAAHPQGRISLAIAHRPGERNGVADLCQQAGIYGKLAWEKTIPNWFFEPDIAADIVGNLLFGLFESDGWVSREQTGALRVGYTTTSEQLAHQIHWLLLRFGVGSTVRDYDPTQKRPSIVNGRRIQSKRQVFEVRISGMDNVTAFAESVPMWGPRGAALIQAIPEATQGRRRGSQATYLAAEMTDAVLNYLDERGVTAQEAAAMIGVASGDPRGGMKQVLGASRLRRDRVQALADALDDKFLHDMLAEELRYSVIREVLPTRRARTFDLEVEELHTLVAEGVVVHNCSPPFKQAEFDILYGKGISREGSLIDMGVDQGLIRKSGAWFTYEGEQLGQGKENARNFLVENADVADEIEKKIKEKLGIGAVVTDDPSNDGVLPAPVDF

Q: With `Cc1ccc(S(=O)(=O)N(C)C)cc1NC(S)=Nc1ccc2c[nH]nc2c1` as the compound, how does the IC50 [1] read?
A: Its IC50 is > 50 µM (not active).

Q: Which IC50 (Caspase-3) does the source give for `CCOc1ccc(-n2nc3cc(C)c(N)cc3n2)cc1` here?
A: Its IC50 is 7.93 µM (active).

Q: What about the IC50 [2] of the same compound?
A: The IC50 was 2.94 µM (active).

Q: What about the IC50 [3] of the same compound?
A: The IC50 was 6.21 µM (active).

Q: And the IC50 [4]?
A: Its IC50 is 59.3 µM (active).

Q: Which IC50 (Caspase-3) does the source give for `NC(=O)c1ccccc1OCC(=O)Nc1ccc(Cl)c(Cl)c1` here?
A: Its IC50 is 37.8 µM (active).

Q: What about the IC50 [2] of the same compound?
A: Its IC50 is 10.4 µM (active).

Q: And the EC50 [5]?
A: Its EC50 is > 260 µM (inconclusive).

Q: And the IC50 [3]?
A: Its IC50 is > 100 µM (inactive).

Q: What about the IC50 [4] of the same compound?
A: The IC50 was > 100 µM (inactive).

Q: What does the source list for `O=C(O)c1cccc(NC(=O)c2cccc(S(=O)(=O)N3CCc4ccccc43)c2)c1`?
A: IC50 (Caspase-3): 90.5 µM (active); IC50 [2]: 9.85 µM (active); IC50 [3]: 23.7 µM (active); IC50 [4]: 24.4 µM (active)

Q: Which results are given for `COc1cc(NC(=O)c2cccc3c(-c4cnn(C)c4)coc23)cc(OC)c1OC`?
A: IC50 (H9c2): > 79 µM (inactive); AC50 [6]: 24.3 µM (active); AC50 [7]: 17.9 µM (active)

Q: Which IC50 [1] does the source give for `Cc1ccc(C(=O)N/N=C/c2ccc(-c3ccccc3[N+](=O)[O-])o2)cn1` here?
A: The IC50 was > 50 µM (not active).

Q: And the AC50 [8]?
A: The AC50 was 30.6 µM (active).

Q: And the EC50 (Protein RecA)?
A: The EC50 was 13.5 µM (active).
